For orientation: IC50 means the concentration at which inhibition is half-maximal. Usually melting point stands for the temperature of the solid-liquid transition.

The structures appear in SMILES notation. Where two headings read alike, the source gives them in different places. Some results are limits rather than exact numbers.

Our source for the IC50 and melting point values is paper PMC6270991, “Design and Synthesis of Thiazolo[5,4-f]quinazolines as DYRK1A Inhibitors, Part I” (Molecules, 2014).

Data set [1] has as its target DYRK1A (Rattus norvegicus, UniProt Q63470). The data set can be described thus: DYRK1A in vitro kinase assay (33P-ATP, Woodtide substrate). The data set is classed as biochemical. The protocol: (§1) Buffer A: MgCl2 (10 mM), 1 mM ethylene glycol-bis(2-aminoethylether)-N,N,N',N'-tetraacetic acid (EGTA), 1 mM dithiothreitol (DTT), 25 mM Tris-HCl pH 7.5, 50 μg heparin/mL.
(§2) Controls were performed with appropriate dilutions of dimethylsulfoxide (DMSO). IC50 values were calculated from dose-response curves established by Sigma-Plots. The GSK-3, CK1, DYRK1A and CLK1 peptide substrates were obtained from Proteogenix (Oberhausbergen, France).
(§3) CDK5/p25. (Human, recombinant) was prepared as previously described. […] ATP (3000 Ci/mmol; 10 mCi/mL) in a final volume of 30 μL. After 30 min incubation at 30 °C, 25 μL aliquots of supernatant were spotted onto sheets of Whatman P81 phosphocellulose paper, and 20 s later, the filters were washed eight times (for at least 5 min each time) in a solution of 10 mL phosphoric acid/L of water. The wet filters were counted in the presence of 1 mL ACS (Amersham) scintillation fluid.

In data set [2] the target is CK1δ/ε. Briefly: CK1δ/ε in vitro kinase assay (33P-ATP, CK1-specific peptide substrate). The data set is classed as biochemical, Porcine. The conditions noted are these: 15 μM ATP, 30 min at 30 °C, triplicate; <50% inhibition at 10 µM reported as >10. The procedure:
as §2, §3
CK1δ/ε. (Porcine brain, native) was assayed as described for CDK5/p25, but using the CK1-specific peptide substrate […]pSAYSITA [23].

The target of data set [3] is T1, CDK5/p25 (Homo sapiens, UniProt Q00535).
T1 construct: made in house
The data set can be described thus: CDK5/p25 in vitro kinase assay (33P-ATP, histone H1). It counts as biochemical. As to conditions: read-out: CDK5 IC50. The procedure: as §1, §2, §3

In data set [4] the target is GSK-3α/β. The data set can be described thus: GSK-3α/β in vitro kinase assay (33P-ATP, GS-1 peptide). As to conditions: 15 μM ATP, 30 min at 30 °C, triplicate; <50% inhibition at 10 µM reported as >10; read-out: GSK3 IC50. The data set is classed as biochemical, Porcine. The protocol: as §1, §2, §3
GSK-3α/β. (Porcine brain, native) was assayed as described for CDK5/p25, but in buffer A and using a GSK-3 specific substrate (GS-1: […]pSEDEEE) (pS stands for phosphorylated serine).

[5] abbreviates: 15 μM ATP, 30 min at 30 °C, triplicate, <50% inhibition at 10 µM reported as >10.

T1 sequence (Q00535 whole entry): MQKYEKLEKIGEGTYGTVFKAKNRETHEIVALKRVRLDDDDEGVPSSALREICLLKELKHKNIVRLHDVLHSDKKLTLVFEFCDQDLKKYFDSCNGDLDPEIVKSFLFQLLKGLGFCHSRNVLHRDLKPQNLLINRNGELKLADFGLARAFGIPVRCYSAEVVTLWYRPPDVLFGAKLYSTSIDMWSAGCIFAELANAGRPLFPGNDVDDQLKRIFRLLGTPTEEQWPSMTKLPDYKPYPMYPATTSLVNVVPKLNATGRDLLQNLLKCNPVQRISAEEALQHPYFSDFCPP
T1 sequence (Q15078 99-307 partner limits assumed): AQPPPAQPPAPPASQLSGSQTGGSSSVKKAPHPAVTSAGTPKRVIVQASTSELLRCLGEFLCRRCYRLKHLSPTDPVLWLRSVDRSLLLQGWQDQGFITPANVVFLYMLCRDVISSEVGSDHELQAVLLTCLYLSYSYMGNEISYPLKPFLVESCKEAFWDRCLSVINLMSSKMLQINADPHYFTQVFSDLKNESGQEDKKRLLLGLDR

Consider `N#Cc1nc2ccc3ncnc(Nc4ccc(Br)cc4F)c3c2s1` [Compound 9, 9-(4-Bromo-2-fluorophenylamino)thiazolo[5,4-f]quinazoline-2-carbonitrile], for which the melting point was > 260 °C. In addition, in data set [1], the IC50 was > 10 µM. Moreover, the IC50 in data set [2] is > 10 µM. Further, in data set [3], the IC50 is > 10 µM. In addition, the concentration for half-maximal inhibition (IC50) in data set [4] is > 10 µM.
The compound `N#Cc1nc2ccc3ncnc(Nc4ccc(F)c(Cl)c4)c3c2s1` [Compound 10, 9-(3-Chloro-4-fluorophenylamino)thiazolo[5,4-f]quinazoline-2-carbonitrile] had a melting point of 252 °C. In data set [1], the half-maximal inhibitory concentration (IC50) is > 10 µM. In data set [2], the IC50 was > 10 µM. Further, the IC50 in data set [3] is > 10 µM. Further, in data set [4], the IC50 was > 10 µM.
Turning to `COc1ccc(Nc2ncnc3ccc4nc(C#N)sc4c23)cc1` [Compound 7, 9-(4-Methoxyphenylamino)thiazolo[5,4-f]quinazoline-2-carbonitrile], the melting point is > 260 °C. Besides, in data set [1], the IC50 was > 10 µM. Moreover, in data set [2], the IC50 is > 10 µM. In addition, the half-maximal inhibitory concentration (IC50) in data set [3] is > 10 µM. In data set [4], the concentration for half-maximal inhibition (IC50) was > 10 µM.
For `CCN(CC)CCNC(=N)c1nc2ccc3ncnc(Nc4ccc(OC)cc4)c3c2s1` [Compound 7e, N-(2-(Diethylamino)ethyl)-9-(4-methoxyphenylamino)thiazolo[5,4-f]quinazoline-2-carboximidamide], the IC50 in data set [1] was 4 µM; in data set [2], > 10 µM; in data set [3] it was > 10 µM; in data set [4] it was 1.3 µM.
On to `CCN(CC)CCNC(=N)c1nc2ccc3ncnc(Nc4ccc5c(c4)OCO5)c3c2s1` [Compound 8e, 9-(Benzo[d][1,3]dioxol-5-ylamino)-N-(2-(diethylamino)ethyl)thiazolo[5,4-f]quinazoline-2-carboxi-midamide], for which the IC50 in data set [1] (setting [5]) is 6.5 µM; in data set [2] it was > 10 µM; in data set [3] (setting [5]), > 10 µM; in data set [4], 0.8 µM.
In the case of `CN(C)CCNC(=N)c1nc2ccc3ncnc(Nc4ccc(F)c(Cl)c4)c3c2s1` [Compound 10d, 9-(3-Chloro-4-fluorophenylamino)-N-(2-(dimethylamino)ethyl)thiazolo[5,4-f]quinazoline-2-carboxi-midamide], the IC50 is > 10 µM in data set [1] (setting [5]), > 10 µM in data set [2], > 10 µM in data set [3] (setting [5]) and 3 µM in data set [4].
Turning to `CN(C)CCNC(=N)c1nc2ccc3ncnc(Nc4ccc5c(c4)OCO5)c3c2s1` [Compound 8d, 9-(Benzo[d][1,3]dioxol-5-ylamino)-N-(2-(dimethylamino)ethyl)thiazolo[5,4-f]quinazoline-2-carboxi-midamide], the IC50 in data set [1] (setting [5]) was 1.05 µM; in data set [2], > 10 µM; in data set [3] (setting [5]), > 10 µM; in data set [4] it was 0.25 µM.
Regarding `N=C(NCc1ccccc1)c1nc2ccc3ncnc(Nc4ccc(Br)cc4F)c3c2s1` [Compound 9f, N-Benzyl-9-(4-bromo-2-fluorophenylamino)thiazolo[5,4-f]quinazoline-2-carboximidamide], the IC50 is > 10 µM in data set [1], > 10 µM in data set [2], > 10 µM in data set [3] and 1.8 µM in data set [4].
`N=C(NCc1ccccc1)c1nc2ccc3ncnc(Nc4ccc5c(c4)OCO5)c3c2s1` [Compound 8f, 9-(Benzo[d][1,3]dioxol-5-ylamino)-N-benzylthiazolo[5,4-f]quinazoline-2-carboximidamide]: the IC50 in data set [1] is > 10 µM; in data set [2], > 10 µM; in data set [3], > 10 µM; in data set [4] it was 2 µM.
Regarding `N=C(NCCN1CCCCC1)c1nc2ccc3ncnc(Nc4ccc(Br)cc4F)c3c2s1` [Compound 9b, 9-(4-Bromo-2-fluorophenylamino)-N-(2-(piperidin-1-yl)ethyl)thiazolo[5,4-f]quinazoline-2-carboxi-midamide], the IC50 is > 10 µM in data set [1] (setting [5]), > 10 µM in data set [2], > 10 µM in data set [3] (setting [5]) and 0.53 µM in data set [4].
As to `COc1ccc(Nc2ncnc3ccc4nc(C(=N)NCCN5CCCC5)sc4c23)cc1` [Compound 7c, 9-(4-Methoxyphenylamino)-N-(2-(pyrrolidin-1-yl)ethyl)thiazolo[5,4-f]quinazoline-2-carboximidamide], the IC50 is > 10 µM in data set [1], > 10 µM in data set [2], > 10 µM in data set [3] and 2 µM in data set [4].
As to `NC(=O)c1nc2ccc3ncnc(Nc4ccc(Br)cc4F)c3c2s1` [Compound 9h, 9-(4-Bromo-2-fluorophenylamino)thiazolo[5,4-f]quinazoline-2-carboxamide], the IC50 in data set [1] was 0.67 µM; in data set [2], > 10 µM; in data set [3], > 10 µM; in data set [4], 0.13 µM.
Consider `N=C(NCCN1CCCC1)c1nc2ccc3ncnc(Nc4ccc(F)c(Cl)c4)c3c2s1` [Compound 10c, 9-(3-Chloro-4-fluorophenylamino)-N-(2-(pyrrolidin-1-yl)ethyl)thiazolo[5,4-f]quinazoline-2-carboxi-midamide], for which the IC50 in data set [1] (setting [5]) was > 10 µM; in data set [2], > 10 µM; in data set [3] (setting [5]), > 10 µM; in data set [4], 2.5 µM.
Regarding `N=C(NCc1ccccc1)c1nc2ccc3ncnc(Nc4ccc(F)c(Cl)c4)c3c2s1` [Compound 10f, N-Benzyl-9-(3-chloro-4-fluorophenylamino)thiazolo[5,4-f]quinazoline-2-carboximidamide], the IC50 in data set [1], in data set [2], in data set [3] and in data set [4] was > 10 µM throughout.
Regarding `N=C(NCCN1CCOCC1)c1nc2ccc3ncnc(Nc4ccc5c(c4)OCO5)c3c2s1` [Compound 8a, 9-(Benzo[d][1,3]dioxol-5-ylamino)-N-(2-morpholinoethyl)thiazolo[5,4-f]quinazoline-2-carboximidamide], the IC50 in data set [1] is 2.2 µM; in data set [2] it was > 10 µM; in data set [3], > 10 µM; in data set [4] it was 0.97 µM.
Turning to `N#Cc1nc2ccc3ncnc(Nc4ccc5c(c4)OCO5)c3c2s1` [Compound 8, 9-(Benzo[d][1,3]dioxol-5-ylamino)thiazolo[5,4-f]quinazoline-2-carbonitrile], the melting point is > 260 °C. For the same compound, in data set [1], the half-maximal inhibitory concentration (IC50) was > 10 µM. In addition, the IC50 in data set [2] is > 10 µM. Further, the IC50 in data set [3] is > 10 µM. Also, the IC50 in data set [4] is > 10 µM.
Consider `CCN(CC)CCNC(=N)c1nc2ccc3ncnc(Nc4ccc(Br)cc4F)c3c2s1` [Compound 9e, 9-(4-Bromo-2-fluorophenylamino)-N-(2-(diethylamino)ethyl)thiazolo[5,4-f]quinazoline-2-carboxi-midamide], for which the IC50 in data set [1] (setting [5]) is > 10 µM; in data set [2], > 10 µM; in data set [3] (setting [5]) it was > 10 µM; in data set [4] it was 2.1 µM.
With `CCN(CC)CCNC(=N)c1nc2ccc3ncnc(Nc4ccc(F)c(Cl)c4)c3c2s1` [Compound 10e, 9-(3-Chloro-4-fluorophenylamino)-N-(2-(diethylamino)ethyl)thiazolo[5,4-f]quinazoline-2-carboxi-midamide], the IC50 in data set [1] (setting [5]) is > 10 µM; in data set [2], > 10 µM; in data set [3] (setting [5]), > 10 µM; in data set [4], 7 µM.
